Measurements as given in article PMC10814725, “In Vitro Anti-Inflammatory Study of Limonoids Isolated from Chisocheton Plants” (Current Issues in Molecular Biology, 2024).

Legend:
TNF-α = assay: ELISA of TNF-α production in LPS-stimulated THP-1 cells; type: cell-based, human; conditions: for Effect on TNF-α level: 10 µM, compared to LPS (+)-stimulated group, THP-1 cells; for IC50: Homo sapiens, THP-1, 18 h, LPS-stimulated (10 ng/mL) THP-1 cells, 1, 5, 10, 20 µM, 18 h, read-out: TNF-α IC50; for TNF-α SI (selectivity index, CC50/IC50): THP-1 CC50 / TNF-α IC50
IL-6 = assay: ELISA of IL-6 production in LPS-stimulated THP-1 cells; type: cell-based, human; conditions: for Effect on IL-6 level: 10 µM, compared to LPS (+)-stimulated group, THP-1 cells; for IC50: Homo sapiens, THP-1, 18 h, LPS-stimulated (10 ng/mL) THP-1 cells, 1, 5, 10, 20 µM, 18 h
Method: The logarithmic growth phase of THP-1 cells was achieved by seeding in 96-well plates at a density of 5 × 10^4 cells/well and differentiated for 24 h in the presence of PMA (0.5 μM solution in medium). After 24 h of incubation, the culture medium was removed from the 96-well plate and the cells were washed with PBS. […] The cells were pretreated with 17 limonoids at the corresponding concentration for 1 h, followed by the addition of LPS (10 ng/mL) and then incubation at 37 °C for 18 h. Finally, 50 μL of each culture supernatant solution was taken to determine the concentrations of IL-6, MCP-1, and IL-1β using the corresponding commercially available human ELISA kits following the manufacturer’s instructions. The analyte concentration in the supernatant was measured in pg/mL, and the inhibition level was expressed as a fold change compared to the LPS (−) control group. To determine the IC50 value, the dose-response data were normalized to the LPS-stimulated-only group, and the percentage of inhibition was calculated using the following formula: % Inhibition=(Absorbance of LPS+ control−Absorbance of compound treatment with LPS)/(Absorbance of LPS+ control−Absorbance of LPS− control)×100
Furthermore, the % inhibition data were interpolated into linear equations to determine the IC50 values.

[1] = system: TLR4-dependent NF-kB activation in HEK-Blue hTLR4 cells; assay: SEAP reporter gene assay, antagonist effect on LPS-stimulated TLR4-dependent NF-κB activation; type: cell-based, human; conditions: 20 µM, LPS 10 ng/mL, 18 h, vs. LPS stimulated-only group
Method: The SEAP Reporter Gene Assay was conducted as previously described. HEK-Blue^TM hTLR4 cells (2 × 10^4 cells/well) were seeded in 96-well plates and were serum-starved for 24 h at 37 °C in a 5% carbon dioxide atmosphere. After incubation, the culture medium was aspirated, and the cells were washed with saline. High-glucose D-MEM supplemented with 0.1% FBS and 1% penicillin-streptomycin was added and treated with or without the 17 limonoids at a concentration of 20 µM for 1 h, followed by LPS addition at a concentration of 10 ng/mL for the LPS-stimulated group. After incubation at 37 °C for 18 h, the supernatants were collected and PNPP in PBS solution (0.8 mM, 100 μL) was added, followed by 4 h of shading at 25 °C. The optical density (OD) of the samples was measured at 405 nm using a microplate reader (BioTek Cytation 5 Cell Imaging Multimode Reader, Agilent Technologies, Santa Clara, CA, USA).

[2] = system: TNF-α, IL-6, IL-1β, and MCP-1; assay: ELISA of pro-inflammatory markers overall (TNF-α, IL-6, IL-1β, MCP-1) in LPS-stimulated THP-1 cells; type: cell-based; conditions: Homo sapiens, read-out: Overall IC50 values for the evaluated pro-inflammatory markers
In short: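 PMA (0.5 μM)-differentiated THP-1 cells, rested overnight in 0.1% FBS medium, pretreated with compound 1 h, then LPS (10 ng/mL) for 18 h at 37 °C. Supernatant cytokines measured by human ELISA (pg/mL); % inhibition normalised to LPS+ and LPS− controls, IC50 by linear interpolation.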

| SMILES | Effect on TNF-α level (TNF-α) | IC50 (TNF-α) [µM] | TNF-α SI (selectivity index, CC50/IC50) (TNF-α) | Effect on IL-6 level (IL-6) | IC50 (IL-6) [µM] | Inhibition of SEAP release (NF-κB activity inhibition) [1] | IC50 [2] [µM] | IL-6 SI (selectivity index, CC50/IC50) (IL-6; THP-1 CC50 / IL-6 IC50) |
| --- | --- | --- | --- | --- | --- | --- | --- | --- |
| CC(=O)O[C@H]1[C@@H](OC(C)=O)[C@@]2(C)C3=CC[C@@H](c4ccoc4)[C@]3(C)CC[C@@H]2[C@@]2(C)C=CC(=O)C(C)(C)[C@H]12 [Compound 5, dysobinin] | significantly reduced | 5.76 | 2.53 | significantly reduced | 1.64 ± 0.97 | significantly inhibited SEAP release | < 20 |  |
| CC(=O)O[C@H]1[C@@H](O)[C@@]2(C)C3=CC[C@@H](c4ccoc4)[C@]3(C)CC[C@@H]2[C@@]2(C)C=CC(=O)C(C)(C)[C@H]12 [Compound 3, 6α-O-acetyl-7-deacetylnimocinol] | significantly reduced | 9.18 | 2.21 | significantly reduced | 3.06 | significantly inhibited SEAP release | < 20 | 6.63 |
